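Grown in 96-well plates, cells were treated for 48 hours with each compound at five concentrations. Insufficient inhibition: endpoint recorded as highest concentration tested. GI50 is the concentration that inhibits growth by half.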 The source made the active and inactive calls. Cut-off read from the data, not from the text of the source: active = GI50 up to about 1.1 µM and inactive = higher.
What was measured:
Experiment in all cases: NCI tumour cell line growth inhibition, 48 h
A498 = test system: A498
A549 = test system: A549
ACHN = test system: ACHN
CCRF-CEM = test system: CCRF-CEM
COLO 205 = test system: COLO 205
DU-145 = test system: DU-145
EKVX = test system: EKVX
HCC 2998 = test system: HCC 2998
HCT-116 = test system: HCT-116
HCT-15 = test system: HCT-15
HOP-62 = test system: HOP-62
K562 = test system: K562
KM12 = test system: KM12
LOX IMVI = test system: LOX IMVI
M14 = test system: M14
MDA-MB-231 = test system: MDA-MB-231
MDA-N = test system: MDA-N
MOLT-4 = test system: MOLT-4
NCI-H226 = test system: NCI-H226
NCI-H23 = test system: NCI-H23
NCI-H460 = test system: NCI-H460
NCI-H522 = test system: NCI-H522
NCI/ADR-RES = test system: NCI/ADR-RES
OVCAR-3 = test system: OVCAR-3
OVCAR-4 = test system: OVCAR-4
OVCAR-5 = test system: OVCAR-5
OVCAR-8 = test system: OVCAR-8
PC-3 = test system: PC-3
RXF 393 = test system: RXF 393
SF-268 = test system: SF-268
SF-295 = test system: SF-295
SF-539 = test system: SF-539
SK-MEL-28 = test system: SK-MEL-28
SK-MEL-2 = test system: SK-MEL-2
SK-MEL-5 = test system: SK-MEL-5
SN12C = test system: SN12C
SNB-75 = test system: SNB-75
T47D = test system: T47D
UACC-257 = test system: UACC-257
UACC-62 = test system: UACC-62
786-0 = test system: 786-0
CAKI-1 = test system: CAKI-1
HL-60 = test system: HL-60
HOP-92 = test system: HOP-92
HT-29 = test system: HT-29
IGROV-1 = test system: IGROV-1
MCF7 = test system: MCF7
MDA-MB-435 = test system: MDA-MB-435
Malme-3M = test system: Malme-3M
SK-OV-3 = test system: SK-OV-3
SNB-19 = test system: SNB-19
SR = test system: SR
SW-620 = test system: SW-620
TK-10 = test system: TK-10
U-251 = test system: U-251
UO-31 = test system: UO-31

O=C1Oc2ccccc2C(=O)/C1=C/NC(=S)Nc1ccccc1
GI50 (A498): 24.6 µM (inactive)
GI50 (A549): 48.8 µM (inactive)
GI50 (ACHN): 23.6 µM (inactive)
GI50 (CCRF-CEM): 28.5 µM (inactive)
GI50 (COLO 205): 44.7 µM (inactive)
GI50 (DU-145): 46.1 µM (inactive)
GI50 (EKVX): 56.5 µM (inactive)
GI50 (HCC 2998): 40 µM (inactive)
GI50 (HCT-116): 34.8 µM (inactive)
GI50 (HCT-15): 28.3 µM
GI50 (HOP-62): 33.6 µM (inactive)
GI50 (K562): 56.4 µM (inactive)
GI50 (KM12): 49.4 µM (inactive)
GI50 (LOX IMVI): 51.1 µM (inactive)
GI50 (M14): 27 µM (inactive)
GI50 (MDA-MB-231): 29 µM (inactive)
GI50 (MDA-N): 37.8 µM (inactive)
GI50 (MOLT-4): 31.8 µM (inactive)
GI50 (NCI-H226): 65.9 µM (inactive)
GI50 (NCI-H23): 61.4 µM (inactive)
GI50 (NCI-H460): 32.1 µM (inactive)
GI50 (NCI-H522): 30.1 µM (inactive)
GI50 (NCI/ADR-RES): 38.5 µM (inactive)
GI50 (OVCAR-3): 25.4 µM (inactive)
GI50 (OVCAR-4): 39.6 µM (inactive)
GI50 (OVCAR-5): 80.4 µM (inactive)
GI50 (OVCAR-8): 44.3 µM (inactive)
GI50 (PC-3): 55.6 µM (inactive)
GI50 (RXF 393): 0.119 µM (active)
GI50 (SF-268): 22.3 µM (inactive)
GI50 (SF-295): 52.2 µM (inactive)
GI50 (SF-539): 28.7 µM (inactive)
GI50 (SK-MEL-28): 44.2 µM (inactive)
GI50 (SK-MEL-2): 15.1 µM (inactive)
GI50 (SK-MEL-5): 42.5 µM (inactive)
GI50 (SN12C): 40.1 µM (inactive)
GI50 (SNB-75): 20.4 µM (inactive)
GI50 (T47D): 5.96 µM (inactive)
GI50 (UACC-257): 77.6 µM (inactive)
GI50 (UACC-62): 0.834 µM (active)

CCOC(=O)c1c(-c2ccc(OC)cc2)c(C#N)c(=S)n(C2OC(COC(C)=O)C(OC(C)=O)C(OC(C)=O)C2OC(C)=O)c1C (stereo not given)
GI50 (786-0): > 100 µM (inactive)
GI50 (A498): > 100 µM (inactive)
GI50 (A549): > 100 µM (inactive)
GI50 (ACHN): 58.2 µM (inactive)
GI50 (CAKI-1): > 100 µM (inactive)
GI50 (CCRF-CEM): 61.9 µM (inactive)
GI50 (COLO 205): > 100 µM (inactive)
GI50 (DU-145): > 100 µM (inactive)
GI50 (EKVX): 78.2 µM (inactive)
GI50 (HCC 2998): > 100 µM (inactive)
GI50 (HCT-116): > 100 µM (inactive)
GI50 (HCT-15): > 100 µM
GI50 (HL-60): 75.7 µM (inactive)
GI50 (HOP-62): > 100 µM (inactive)
GI50 (HOP-92): 4.32 µM (inactive)
GI50 (HT-29): > 100 µM (inactive)
GI50 (IGROV-1): > 100 µM (inactive)
GI50 (K562): 38.4 µM (inactive)
GI50 (KM12): > 100 µM (inactive)
GI50 (LOX IMVI): > 100 µM (inactive)
GI50 (M14): > 100 µM (inactive)
GI50 (MCF7): > 100 µM (inactive)
GI50 (MDA-MB-231): > 100 µM (inactive)
GI50 (MDA-MB-435): > 100 µM (inactive)
GI50 (MDA-N): > 100 µM (inactive)
GI50 (MOLT-4): 61.1 µM (inactive)
GI50 (Malme-3M): > 100 µM (inactive)
GI50 (NCI-H226): > 100 µM (inactive)
GI50 (NCI-H23): > 100 µM (inactive)
GI50 (NCI-H460): > 100 µM (inactive)
GI50 (NCI-H522): 70.8 µM (inactive)
GI50 (NCI/ADR-RES): > 100 µM (inactive)
GI50 (OVCAR-3): 31.5 µM (inactive)
GI50 (OVCAR-4): 20.9 µM (inactive)
GI50 (OVCAR-5): > 100 µM (inactive)
GI50 (OVCAR-8): > 100 µM (inactive)
GI50 (PC-3): 30.8 µM (inactive)
GI50 (RXF 393): > 100 µM (inactive)
GI50 (SF-268): > 100 µM (inactive)
GI50 (SF-295): > 100 µM (inactive)
GI50 (SF-539): > 100 µM (inactive)
GI50 (SK-MEL-28): > 100 µM (inactive)
GI50 (SK-MEL-5): > 100 µM (inactive)
GI50 (SK-OV-3): > 100 µM (inactive)
GI50 (SN12C): > 100 µM (inactive)
GI50 (SNB-19): > 100 µM (inactive)
GI50 (SNB-75): 12.7 µM (inactive)
GI50 (SR): > 100 µM (inactive)
GI50 (SW-620): > 100 µM (inactive)
GI50 (T47D): 47.6 µM (inactive)
GI50 (TK-10): > 100 µM (inactive)
GI50 (U-251): > 100 µM (inactive)
GI50 (UACC-257): > 100 µM (inactive)
GI50 (UACC-62): 44.5 µM (inactive)
GI50 (UO-31): 1.46 µM (inactive)

Reference: ChEMBL document CHEMBL1201862, “PubChem BioAssay data set” (2004)
